Test results reported in patent US20240325461A1, “COMBINATION THERAPIES FOR THE TREATMENT OF DISEASES” (Research Development Foundation, priority 2023, published 2024).

Assays:
[1] = test system: ovariectomized female mice; assay: 3-point bending test of femur, curative model; format: in vivo, C57BL/6J mice; details: postmortem, day 60
Source text: (§1) A curative mouse model for osteoporosis was used for experiments, as follows. 16-week old female C57Bl/6J mice were ovariectomized and left for 2 months to develop the symptoms of osteoporosis and postmenopausal weigh gain and glucose intolerance. Administration of the respective treatment was initiated following these 2 months after the ovariectomies, i.e, once the mice already developed the symptoms of the respective metabolic disease.
Ovariectomy: 16 weeks old C57Bl/6J female mice, obtained through Janvier, were be anesthetised with Xylazin/Ketamin (injection of 120 μl of a mixture of 120 mg/kg ketamine and 16 mg/kg xylazine) and shaved below the ribs on the back side. Betadine was be applied to the area for appropriate disinfection. After a 1-2 cm incision through the skin and the muscle layer just below the ribs, the ovary was localized, the fallopian tube ligated with dissolving suture and the ovary removed. The muscle layer was sutured with dissolving suture, the wound closed with staples and disinfected. The same procedure was/will be performed on the other side. A dose of Tamgesic was/will be administered 4 hours after the surgery, and the staples were removed 7 days after the surgery under isoflurane anesthesia. The sham-operated animals underwent the same procedure, without ligating the fallopian tube and the ovary excision. All mice were then kept for additional 2 months after the ovariectomies before starting the respective curative treatments.
Microbiota transplantation: Lactobacillus gasseri (DSM 20604) and Parabacteroides goldsteinii (DSM 19948) were pushased from DSMZ. Lactobacillus reuteri (PTA-6475) was obtained from ATCC. […] Freshly prepared bacteria were diluted in anaerobic PBS to a final concentration equivalent to 1.5 OD/ml at 600 nm. 200 ul of this suspension was gavaged every second day to ovariectomized mice, starting 2 months post-surgery for 38 day. From day 38 of the gavage until the day od sacrifice at day 60 the concentration was equivalent to 2 OD/ml at 600 nm, of which 200 ul was gavaged.
The amount administered was 80 μg/kg body weight once per week with subcutaneous injection, in total amount of 100-200 μl per injection.

[2] = test system: ovariectomized female mice; assay: Intraperitoneal insulin tolerance test, curative model; format: in vivo, C57BL/6J mice; details: test on day 52 of administration
Protocol: as §1
Insulin sensitivity (normalized values) was measured by intraperitoneal insulin tolerance test of ovariectomized female mice, administered with the respective treatment starting 2 months flowing the surgery, considered as day 0. Test is performed on day 52 after staring the administration.
Ovariectomy: 16 weeks old C57Bl/6J female mice, obtained through Janvier, were be anesthetised with Xylazin/Ketamin (injection of 120 μl of a mixture of 120 mg/kg ketamine and 16 mg/kg xylazine) and shaved below the ribs on the back side. Betadine was be applied to the area for appropriate disinfection. After a 1-2 cm incision through the skin and the muscle layer just below the ribs, the ovary was localized, the fallopian tube ligated with dissolving suture and the ovary removed. The muscle layer was sutured with dissolving suture, the wound closed with staples and disinfected. The same procedure was/will be performed on the other side. […]

[3] = test system: Procollagen Type-1 N Terminal Propeptide (P1NP); assay: Plasma bone formation marker P1NP (ELISA); format: in vivo, mice; details: P. goldsteinii 1.5 OD/ml, 200 μl every second day, given with alendronate 80 μg/kg BW once a week
Protocol: Supplementation of P. goldsteinii increases secretion the bone formation marker P1NP, measured at Day 29 (FIG. 18A), or Day 50 (FIG. 18B) after the beginning of the treatment.
Measuring plasma bone turnover markers: After 5 h fasting (during the treatment), blood samples were collected from the tail of the mice with microvette capillary tubes containing EDTA and plasma was isolated after centrifuging 10000 g for 10 minutes. Plasma samples are collected during sacrifice (at the end of experiment) by taking 500 μl of blood from terminally anesthetized mice in tubes with 10 μl of […] EDTA, 4 μl of aprotinin (1.3%) and 4 μl of DPP-IV (10 mM), followed by centrifugation as described before. N-terminal pro-collagen type 1 extension pro-peptide (PINP) was measured with an ELISA kit (cat no:AC-33F, Immunodiagnostic Systems) according to manufacturers' instructions.

[4] = curative model; treatment started 2 months after ovariectomy; alendronate 80 μg/kg/week s.c.; HI P. goldsteinii by gavage every second day

Compound: NCCCC(O)(P(=O)(O)O)P(=O)(O)O [alendronate]
- Elastic energy of femurs (femur metaphysis, FIG. 10) [1]: no changes
- Elastic energy, femur midshaft [1]: No changes
- Stiffness, femur metaphysis [1]: corrected ovariectomy induced decreases in stiffness
- Stiffness, femur midshaft [1]: No changes
- Ultimate stress, femur metaphysis [1]: not observed to result in a statistically significant increase
- Ultimate stress, femur midshaft [1]: not observed to result in improvements
- Insulin sensitivity (intraperitoneal insulin tolerance test) [2]: unaffected
- P1NP levels after 50 days of treatment [3]: reduction in P1NP levels
- Body weight gain [4]: did not alter the body weight
